Article PMC4186449 (Pharmacology Research & Perspectives, 2014)

Molecular target: T1, LdTOPII (Leishmania donovani, UniProt Q9XZN0)
T1 sequence (Q9XZN0 1-1236): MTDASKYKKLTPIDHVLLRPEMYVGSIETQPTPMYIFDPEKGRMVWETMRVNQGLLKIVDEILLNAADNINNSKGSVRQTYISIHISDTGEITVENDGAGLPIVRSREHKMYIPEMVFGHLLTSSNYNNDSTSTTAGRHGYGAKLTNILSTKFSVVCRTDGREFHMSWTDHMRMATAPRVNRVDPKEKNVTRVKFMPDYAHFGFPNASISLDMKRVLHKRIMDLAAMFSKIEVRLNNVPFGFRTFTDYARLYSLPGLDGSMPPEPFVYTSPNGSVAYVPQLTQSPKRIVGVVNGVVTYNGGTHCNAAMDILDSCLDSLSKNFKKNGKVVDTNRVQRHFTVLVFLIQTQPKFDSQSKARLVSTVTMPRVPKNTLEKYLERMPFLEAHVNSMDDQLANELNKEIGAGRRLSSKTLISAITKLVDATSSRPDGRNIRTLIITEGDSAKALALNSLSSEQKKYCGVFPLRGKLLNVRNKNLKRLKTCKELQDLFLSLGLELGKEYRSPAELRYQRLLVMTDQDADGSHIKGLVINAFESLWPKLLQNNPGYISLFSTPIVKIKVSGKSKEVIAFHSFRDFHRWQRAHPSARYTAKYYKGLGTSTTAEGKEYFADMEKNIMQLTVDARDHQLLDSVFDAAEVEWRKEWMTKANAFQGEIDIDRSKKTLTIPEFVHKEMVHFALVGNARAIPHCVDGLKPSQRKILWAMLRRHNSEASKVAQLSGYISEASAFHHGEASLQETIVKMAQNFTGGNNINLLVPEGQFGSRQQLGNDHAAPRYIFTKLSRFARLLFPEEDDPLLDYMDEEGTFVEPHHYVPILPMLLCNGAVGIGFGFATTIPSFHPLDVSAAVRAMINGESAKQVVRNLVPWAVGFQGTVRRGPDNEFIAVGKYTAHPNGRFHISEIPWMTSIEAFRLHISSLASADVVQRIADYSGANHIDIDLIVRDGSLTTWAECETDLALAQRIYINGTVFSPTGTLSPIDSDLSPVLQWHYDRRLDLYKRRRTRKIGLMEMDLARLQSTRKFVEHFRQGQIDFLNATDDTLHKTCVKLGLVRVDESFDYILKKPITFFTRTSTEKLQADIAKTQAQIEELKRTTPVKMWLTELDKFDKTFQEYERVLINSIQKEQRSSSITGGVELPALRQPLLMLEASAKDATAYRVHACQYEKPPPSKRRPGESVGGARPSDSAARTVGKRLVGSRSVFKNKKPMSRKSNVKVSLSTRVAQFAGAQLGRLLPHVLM
Conditions: 2 mmol/L ATP, 30°C

Structure (SMILES): Nc1ncnc2c1ncn2[C@@H]1O[C@H](COP(=O)(O)OP(=O)(O)OP(=O)(O)O)[C@@H](O)[C@H]1O [ATP]
- pyruvate kinase/lactate dehydrogenase coupled ATPase assay: JVPH3 and JVPH4 did not interfere with LdTOPII-mediated ATP hydrolysis
